According to patent US20240415753A1, “DEODORANT COMPOSITIONS COMPRISING CARBOXYLIC ACIDS” (The Procter & Gamble Company, priority 2023, published 2024):

Assays:
[1] = Surface tension of carboxylic acid at 2 wt % in water (Wilhelmy plate); type: physicochemical; conditions: 2 wt % solution of the carboxylic acid in water; average of 3 samples
Description: Surface tension was measured using surface tension measurement, described herein. […] Surface tension of a sample is calculated as the average of the last 5 measured values. […] The average of the last 5 values is used to calculate surface tension of a sample. Surface Tension is measured by ASTM […]-20 Method C-Surface Tension by […] plate. For accurate measurement, the Surface Tension measurement should be allowed to equilibrate over the course of at least 1 minute, or at least 2 minutes, or longer depending on the sample. Properly equilibrated surface tension measurement is evaluated by not seeing a change in the surface tension measurement across multiple data points at the end of the measurement time period. The sample is run for a longer period of time if the surface tension measurement is continuing to change across multiple data points at the end of the measurement time period. […] The average of the last 5 values collected is used to calculate surface tension of a sample.

[2] = tested on: mock community of five underarm species (3 Staphylococcus and 2 Corynebacterium); experiment: MIC of various carboxylic acids (Optical Density MIC 95); type: cell-based; conditions: pH 5, Tryptic Soy Broth, initial concentration 1000 ppm, ~24 hours at 37° C., OD 600 nm
Excerpt: The following MIC (Minimum Inhibitory Concentration) was done on various carboxylic acids. The MIC is the lowest concentration of active compound at which no growth of the microorganism is observed macroscopically. […] Tryptic Soy Broth is used in the measurements below as a standard diluent for testing MIC. Initial concentration is the highest concentration tested in this experiment. […] The results shown in Table 7 below indicate that carboxylic acids have the ability to inhibit bacteria growth. […] The MIC or minimum inhibitory concentration test determines antimicrobial activity of a material against a specific bacteria. The most commonly employed methods are the tube dilution method and agar dilution method. Test products that are not clear or precipitate the growth media are tested by agar dilution method which is similar to the tube dilution method except dilutions are plated on agar. The tube dilution test is the standard method for determining levels of microbial resistance to an antimicrobial agent. Serial dilutions of the test agent are made in a liquid microbial growth medium which is inoculated with a standardized number of organisms and incubated for a prescribed time. The lowest concentration (highest dilution) of test agent preventing appearance of turbidity (growth) is considered to be the minimal/minimum inhibitory concentration (MIC). At this dilution the test agent is bacteriostatic. […] This measurement is referred to as optical density.

[3] = Surface tension of solvents at 50 wt % in water (Wilhelmy plate); type: physicochemical; conditions: solvent at 50 wt % in water; average of 3 samples
Excerpt: In addition, carboxylic acids may be used in deodorant compositions that are desired to be clear. For the composition to appear clear, the refractive index of the polar and nonpolar phases may not vary too much. For example, for a clear appearance of a polar in nonpolar emulsion, a significant amount of material with high refractive index, water soluble solvents or emollients (for example glycols, polyethers, diols, glycerin, or mixtures thereof), can be added to the polar phase to match the refractive index of water (1.333) to silicone (1.40). […] Surface tension is measured for mixtures of solvents at 50 wt % in water. Surface tension was measured using the surface tension measurement, as described in the Test Method section herein. Measurement time period was 1 minute with 30 values measured over the measurement time period. Surface tension of a sample is calculated as the average of the last 5 measured values. Each reported value is an average of 3 samples measured.
Surface Tension is measured by ASTM D1331-20 Method C-Surface Tension by Willhelmy plate. […] Properly equilibrated surface tension measurement is evaluated by not seeing a change in the surface tension measurement across multiple data points at the end of the measurement time period. […] A minimum of 30 measured values are collected during the measurement time period. […]

| Compound | Surface Tension when measured at 2 wt % in Water [1] | MIC [2] | Surface Tension when measured at 50 wt % in Water [3] |
| --- | --- | --- | --- |
| O=C1O[C@H]([C@@H](O)CO)C(O)=C1O [Ascorbic Acid] | 72.4 mN/m | – | – |
| O=C(O)CC(O)(CC(=O)O)C(=O)O [Citric Acid] | 71.3 mN/m | – | – |
| O=C(O)/C=C/C(=O)O [Fumaric Acid] | – | 250 µg/mL | – |
| OCC(O)CO [Glycerin] | – | – | 68.6 mN/m |
| O=C(O)CO [Glycolic Acid] | 71.1 mN/m | – | – |
| CC(O)C(=O)O (centres unmarked) [Lactic Acid] | 63.7 mN/m | 1000 µg/mL | – |
| O=C(O)/C=C\C(=O)O [Maleic Acid] | – | 1000 µg/mL | – |
| O=C(O)CC(O)C(=O)O (centres unmarked) [Malic Acid] | 71.8 mN/m | 500 µg/mL | – |
| O=C(O)C(O)c1ccccc1 (centres unmarked) [Mandelic Acid] | 63.7 mN/m | 1000 µg/mL | – |
| CC(O)CO (centres unmarked) [Propylene Glycol (PG), Propylene Glycol] | – | – | 44.6 mN/m |
| O=C(O)c1ccccc1O [Salicylic Acid] | – | 125 µg/mL | – |
| O=C(O)CCC(=O)O [Succinic Acid] | 69.8 mN/m | 1000 µg/mL | – |
| O=C(O)C(O)C(O)C(=O)O (centres unmarked) [Tartaric Acid] | – | 250 µg/mL | – |
